Measurements reported in patent US6407075B1, “Fatty acid treatment” (priority 1996, dated 2002).

Key:
[1] = system: side effects of chemotherapy; test: Case histories of patients given fatty acid derivatives with chemotherapy; type: in vivo, human patients
Description: The following histories illustrate use of the invention
This chemotherapy regime normally causes severe vomiting and nausea, marked malaise and anorexia.
C. […] The chemotherapy regime normally causes nausea, vomiting, mucositis and white cell suppression.
This normally causes nausea, vomiting, white cell suppression and mucositis.

[2] = system: toxic side effects of chemotherapy; test: Clinical observations in cancer patients receiving conventional chemotherapy plus fatty acids; type: in vivo, human patients; settings: patients receiving conventional chemotherapy and the fatty acid at the same time
Description: In many instances, the fatty acids have been given to patients who at that same time were receiving conventional chemotherapy for their cancer.

[3] = system: streptozotocin damage to the islet cells of the pancreas; test: Streptozotocin-induced diabetes in rats; type: in vivo; settings: fatty acid administered prior to streptozotocin
Description: In a third animal study, the anti-cancer streptozotocin was used. A major effect of this compound is to damage the islet cells of the pancreas and consequently to lead to insulin dependent diabetes.

[4] = system: cardiotoxicity of doxorubicin; test: Cardiotoxicity of doxorubicin in mice pre-treated with fatty acids; type: in vivo; settings: 20 mg doxorubicin intraperitoneally, fatty acid pre-treatment
[5] = system: lung toxicity of bleomycin; test: Lung toxicity (fibrosis) of intratracheal bleomycin in animals; type: in vivo; settings: bleomycin into the trachea, about 5-10 IU per kg body weight, 2-4 weeks
Experimental: We have recently supported the clinical observations by animal studies on the cardiotoxicity of doxorubicin and the lung toxicity of bleomycin. When 20 mg of doxorubicin (DOX) is given intraperitoneally to mice, the animals usually die within two weeks because of cardiac damage. When animals were pre-treated with LA or with GLA or with EPA or with DHA in various doses and chemical forms, the death rate to the same dose of doxorubicin was reduced to between 20% and 60% depending on the dose and the precise chemical administered. […] Similarly, bleomycin introduced into the trachea of animals under anaesthesia at a dose of about 5-10 IU per kg body weight, within 2-4 weeks the animals develop severe lung fibrosis which is very similar to the fibrosis which occurs in human patients treated with bleomycin. […] In a third animal study, the anti-cancer streptozotocin was used. A major effect of this compound is to damage the islet cells of the pancreas and consequently to lead to insulin dependent diabetes.

[6] = case D, metastatic colon cancer, 5-fluorouracil, 3 g/day from two weeks before and during chemotherapy
[7] = case C, breast cancer, 'CMF' regime, 30 g cumulative intravenously, then 2 g/day oral

In the case of `CC/C=C\C/C=C\C/C=C\C/C=C\C/C=C\CCCC(=O)OCC(COC(=O)CCC/C=C\C/C=C\C/C=C\C/C=C\C/C=C\CC)OC(=O)CCC/C=C\C/C=C\C/C=C\C/C=C\C/C=C\CC` [triglyceride of eicosapentaenoic acid], the “nausea and white cell suppression” value [1, 6] is reported as “less than expected” and the vomiting or mucositis [1, 6] is reported as “no vomiting or mucositis”.
`CC/C=C\C/C=C\C/C=C\C/C=C\C/C=C\CCCC(=O)O` [EPA, eicosapentaenoic acid] was tested, and the “toxic side effects of chemotherapy” value [2] was “substantially reduced”.
In the case of `CCCCC/C=C\C/C=C\C/C=C\CCCCC(=O)O` [GLA, gamma-linolenic acid], the “likelihood of the development of diabetes” value [3] is reported as “greatly reduced”, the “reduction in cardiac weight characteristic of doxorubicin toxicity” value [4] is reported as “considerably attenuated” and the “lung pathological changes and increased production of fibrous tissue” value [5] is reported as “almost entirely suppress”. The “toxic side effects of chemotherapy” value [2] was “substantially reduced”.
With `CC/C=C\C/C=C\C/C=C\C/C=C\C/C=C\C/C=C\CCC(=O)O` [DHA, docosahexaenoic acid] the “toxic side effects of chemotherapy” value [2] was “substantially reduced”.
With “dilinoleoyl-monogammalinolenoyl-glycerol [DLMG]” the general well-being ([1]; case A, glioblastoma patient, carmustine) was “felt well throughout” and the nausea ([1]; case A, glioblastoma patient, carmustine, given prior to and during the course) was “only very mild nausea”.
`CCCCC/C=C\C/C=C\C/C=C\CCCCC(=O)[O-].[Li+]` [lithium salt of gammalinolenic acid] was tested, and the general well-being ([1]; case B, Hodgkin's disease, 'MOPP' regime, 3 g per day orally) was “remained well and able to continue working”, the nausea ([1]; case B, Hodgkin's disease, 'MOPP' regime, 3 g per day orally from one week before and throughout chemotherapy) was “only mild nausea” and the nausea [1, 7] was “only mild nausea”. For the same molecule, the “suppression of the white cell count” value [1, 7] was “less than expected” and the vomiting or mucositis [1, 7] was “no vomiting or mucositis”.
In the case of `CCCCC/C=C\C/C=C\CCCCCCCC(=O)O` [LA, linoleic acid], the “likelihood of the development of diabetes” value [3] is reported as “greatly reduced”, the “reduction in cardiac weight characteristic of doxorubicin toxicity” value [4] is reported as “considerably attenuated” and the “lung pathological changes and increased production of fibrous tissue” value [5] is reported as “almost entirely suppress”. For the same molecule, the “toxic side effects of chemotherapy” value [2] was “substantially reduced”.
